Entries after “also recorded” stand apart in the source; their conditions may differ. Starred links: 1 amine or outer side, 2 acyl side, 3 side chain; linkers in the order of their positions; H or OH if unused. Positions of bridges follow the written chain, without caps; N, C: chain ends. Non-standard residues stand in square brackets, D forms with d. Residues, ends and D or L forms follow the SMILES beside them. X1 = CC(=O)NC(C(=O)OC(C(C)C)C(N[*:1])C(=O)[*:2])C(O)C(C)C; PhLac = O=C(O)[CH](O)Cc1ccccc1; NMeT = CN[CH](C(=O)O)[CH](C)O; NMeA = CN[CH](C)C(=O)O; NMeDha = C=C(NC)C(=O)O

Assay [1] deals with INS-GAS mice. Particulars: mouse, in vivo.
The subject of assay [2] is TMK1 gastric cancer cell line. Briefly: YAP immunoblotting in TMK1 gastric cancer cell line. Set-up: changes of YAP phosphorylation after carbachol stimulation: dose or concentration left out as unconfirmed. In kind it is cell-based, human. On the procedure: (§1) Similarly, carbachol treatment in Apc-deleted gastric organoids reduced the level of phosphorylated YAP (FIG. 51G). […] Next a human M3R gene-expressing construct was transfected into the M3R-negative AGS cell line. Overexpression of M3R decreased the level of phosphorylated YAP in a Gq-dependent manner, and activated the transcriptional activity of YAP in a luciferase assay (Dupont et al., 2011) (FIGS. 45B, 45C, and 52A).
(§2) Protein lysates were prepared from cells, separated by sodium dodecyl sulfate-polyacrylamide gel electrophoresis (SDS-PAGE), transferred to polyvinylidene difluoride membranes (Millipore). The membrane was probed with primary antibodies (phospho-YAP (Cell Signaling, 1:1000), YAP (Cell Signaling, 1:1000, and β-actin (Sigma, 1:5000) antibodies), and then incubated with the secondary antibody. Immunocomplexes were detected using the enhanced chemiluminescence system (Amersham Biosciences).
(§3) The human cancer cell lines were cultured in RPMI, DMEM, or Ham's F-12 medium supplemented with 10% fetal bovine serum, as described previously (Hayakawa et al., 2011).

Assay [3] deals with Dclk1-CreERT; R26-DTA mice. Particulars: mouse, in vivo.
The test system of the next assay is DSS-colitis. Nature of the assay: Bethanechol in drinking water in DSS-colitis. In kind it is in vivo, mouse.
Assay [4] in a line: Bethanechol and response to 15 Gy abdominal irradiation (AIR). In kind it is in vivo, mouse.
In a further assay the test system is human cancer cells. Briefly: NGF expression in human cancer cells treated with carbachol. In kind it is cell-based. Particulars: TMK-1 cells, 10 mM carbachol for 24 hours.
Excerpt: as §1
Total RNA was extracted from whole stomach samples from each animal using TRIzol reagent (Invitrogen) or the RNAqueous-micro kit (Ambion) and subjected to first-strand complementary DNA synthesis using the Superscript III cDNA Amplification System (Invitrogen) following the manufacturer's instructions. qRT-PCR was performed using a three-step method, an ABI 7300 system and SYBR green (Roche). The qRT-PCR primer sequences are available upon request. The results were expressed as the copy number of each gene relative to that of Gapdh or GAPDH.
as §3

Assay [5] relates to gastric organoids. Nature of the assay: Ngf expression in cultured gastric organoids treated with carbachol. In kind it is cell-based, mouse. From the text: In mouse gastric tumors, there was also a specific upregulation of Ngf (almost 20 times higher expression than the normal stomach), and such upregulation was not observed in any other neurotrophins (FIG. 40B). Similar upregulation of Ngf was found in mouse colorectal tumors induced by azoxymethane (AOM) and dextran sodium sulfate (DSS) (FIG. 47B). […] Immunostaining and in situ hybridization confirmed that NGF was expressed within the neoplastic epithelium rather than the stromal compartment (FIGS. 40D and 47C), a finding confirmed by cell sorting and subsequent qPCR (FIGS. 40E and 40F). MNU tumor-derived organoids that are cultured in isolation, separated from their native microenvironment, lost Ngf expression within 7 days. […] Therefore, ACh production, possibly from tuft cells initially but later from innervated nerves with axonogenesis, is at least partly responsible for the neoplastic upregulation of NGF.
The harvested mouse stomachs were opened longitudinally and washed with cold PBS. The tissue was chopped into approximately 5 mm pieces, washed with cold PBS, and incubated in 8 mM EDTA in PBS for 60 minutes on ice. The tissue fragments were suspended vigorously in cold 10% FBS using a 10-mL pipette, yielding supernatants enriched in crypts. Gland fractions were centrifuged at 900 rpm for 6 minutes at 4° C. and diluted with advanced DMEM/F12 (Invitrogen) containing B27, N2, 1 μM n-Acetylcysteine, 10 mM HEPES, penicillin/streptomycin, and Glutamax (all from Invitrogen). […]
Total RNA was extracted from whole stomach samples from each animal using TRIzol reagent (Invitrogen) or the RNAqueous-micro kit (Ambion) and subjected to first-strand complementary DNA synthesis using the Superscript III cDNA Amplification System (Invitrogen) following the manufacturer's instructions. qRT-PCR was performed using a three-step method, an ABI 7300 system and SYBR green (Roche). […] The results were expressed as the copy number of each gene relative to that of Gapdh or GAPDH.

The subject of assay [6] is Apc-deleted gastric organoids. Nature of the assay: YAP immunoblotting in Apc-deleted gastric organoids treated with carbachol. In kind it is cell-based, mouse. As to conditions: 1 mM carbachol for 7 days.
Excerpt: as §1
The harvested mouse stomachs were opened longitudinally and washed with cold PBS. The tissue was chopped into approximately 5 mm pieces, washed with cold PBS, and incubated in 8 mM EDTA in PBS for 60 minutes on ice. The tissue fragments were suspended vigorously in cold 10% FBS using a 10-mL pipette, yielding supernatants enriched in crypts. […]
as §2

The test system of assay [7] is INS-GAS mice. Particulars: mouse, in vivo. This is another data set of the same source.
Assay [8] concerns small cell lung cancer xenografts. Particulars: reference 50; cited from earlier work.
Assay [9] has as its system gastric organoids. Briefly: In vitro gastric organoid culture with or without neuron co-culture: organoid growth. In kind it is cell-based, mouse.
The subject of assay [10] is gastric organoids. Briefly: Stem cell marker / Wnt target gene expression in gastric organoids (qRT-PCR). In kind it is cell-based, mouse.
Where [11] appears, read: after knockout of tuft cells, bethanechol in the drinking water.

As for `O=c1[nH]cc(F)c(=O)[nH]1` [5-FU, 5-Fluorouracil], the tumor size entry in the assay on INS-GAS mice [1] was “no effect”.

For the molecule `C=C1C(=O)NC(C)C(=O)N(C)C(C)C(=O)NC(C(OC(=O)C(NC(C)=O)C(O)C(C)C)C(C)C)C(=O)N(C)C(C(C)OC)C(=O)OC(C)C(NC(C)=O)C(=O)OC(Cc2ccccc2)C(=O)N1C` (centres unmarked) [YM254890] (Ac-T[PhLac][NMeDha]A[NMeA][X1][NMeT](Me); ester 1-C; configuration not given here), the “changes of YAP phosphorylation after carbachol stimulation” value in assay [2] (pretreated with YM254890) is reported as “blocked”.

Consider `CC(C[N+](C)(C)C)OC(N)=O` (centres unmarked) [bethanechol], for which, in assay [3], the “loss of proliferation in the stomach by Dclk1+ cell ablation” value was “rescue this effect at least in part; also recorded: significantly rescued”. Also, the “mucosal / intestinal regeneration” value in the assay with DSS-colitis (after ablation of Dclk1+ (tuft) cells, bethanechol in the drinking water) is listed as “restored; also recorded: improve”. Moreover, in the assay on DSS-colitis (setting [11]), the proliferation result is on record as “improved” and the ulcer length result is “reduction”. Further, the DSS colitis result in the assay with DSS-colitis (bethanechol-treated) is listed as “Significant improvement”. In addition, the “proliferation (Ki67)” value in the assay on DSS-colitis (mouse, in vivo) is “increased”. For the same molecule, the survival result in assay [4] (15 Gy abdominal irradiation, bethanechol as a single agent immediately before or after the radiation) is “no significant overall impact”. In addition, in assay [4] (both pre- and post-radiation treated mice), the “appearance of the colon after radiation” value was “almost normal appearing”. In addition, the “improvement of histopathologic score for the colon compared to the controls” value in [4] (day +4 after radiation, both pre- and post-radiation treated mice) is recorded as over 65%.

For `C[N+](C)(C)CCOC(N)=O` [carbachol], the values for the NGF expression entry in the assay with human cancer cells and with gastric organoids [5] (organoids from M3 Receptor Knockout (M3RKO) mice) were “significantly upregulated” and “no change”, respectively. For the same molecule, the Ngf expression result with gastric organoids [5] (MNU tumor-derived organoids cultured in isolation, day 7) is “upregulated; also recorded: partly reestablished”; with gastric organoids [5] (gastric organoids from WT mice, carbachol for 7 days), “upregulated”. The “level of phosphorylated YAP” value in assay [6] and in assay [2] (1 mM carbachol) was “reduced” in each case. The “levels of total YAP” value in [2] (1 mM carbachol) was “no significant changes”.

For the molecule `NC(=O)C(c1ccccc1)(c1ccccc1)[C@@H]1CCN(CCc2ccc3c(c2)CCO3)C1` [darifenacin], the “cellular proliferation of the tumors” value in the assay with INS-GAS mice [7] is listed as “reduced”. Moreover, the “growth of small cell lung cancer xenografts” value in [8] was “inhibit”.

Regarding `O=C1[O][Pt]2([NH][C@@H]3CCCC[C@H]3[NH]2)[O]C1=O` [oxaliplatin], the tumor size entry in the assay on INS-GAS mice [1] is reported as “no effect”.

Turning to `CC[C@@H]1C(=O)OC[C@@H]1Cc1cncn1C` [pilocarpine], the organoid growth entry in the assay with gastric organoids [9] (relative number of organoids at day 10, 100 μM pilocarpine) is listed as “stimulated”. The “expression of Lgr5, Cd44, and Sox9” value in the assay with gastric organoids [10] (gastric organoids of M3KO mice) is recorded as “no effects”. Besides, in the assay with gastric organoids [10] (organoids from WT mice, 10 or 100 μM, day 7, dose-dependent), the “expression of gastric stem cell markers and Wnt target genes Lgr5, Cd44, and Sox9” value is given as “up-regulation”.

With `CN1[C@@H]2C[C@@H](OC(=O)[C@H](CO)c3ccccc3)C[C@H]1[C@@H]1O[C@@H]12` [scopolamine], the “stimulatory effect of neuron co-culture on gastric organoid growth” value in the assay on gastric organoids [9] is “inhibited”.

On to “NGF: nerve growth factor, used to treat TMK-1 cells”, for which the YAP activation result in assay [2] (TMK-1 cells treated with NGF) is on record as “did not cause”.

These data come from patent publication US20170246267A1, “CHOLINERGIC ANTAGONISM AS AN ADJUNCT TO CANCER THERAPY” (The Trustees of Columbia University in the City of New York, priority 2014, published 2017).
